From patent US20170119742A1, “MEDICAMENT FOR PREVENTING AND/OR TREATING STRESS DISEASES” (ONO PHARMACEUTICAL CO., LTD., priority 2014, published 2017)

What was measured:
brain TSPO [1] = assay: Brain occupancy using PET in monkeys, [11C] PBR28; format: in vivo; details: rhesus monkey PET, [11C] PBR28, oral
Experimental: Male rhesus monkeys (Hamri Co., Ltd., at the time of use: 5 to 8 kg) were used. The vehicle (0.5 w/v % methylcellulose 400 cP solution) or the compound of the present invention (0.3 to 30 mg/kg) was once orally administered to 3 rhesus monkeys. After 2 hours of the administration, a PET measurement using [^11C] PBR28 was performed in the following manner.
Measurement equipment: PET camera; SHR-7700 (Hamamatsu Photonics K.K.) Image reconstruction: SHR Control II program (Hamamatsu Photonics K.K.) Change over time in brain radioactivity concentration and calculation of distribution volume: PMOD programs (PMOD Technologies Ltd.) Measurement methods: 120 minutes blank measurement and 30 minutes transmission measurement were performed using 68Ge/68Ga calibration source. Next, [^11C] […]
The compound of the present invention (0.3 to 10 mg/kg) was orally administered twice daily for 3 days, once on day 4 to 3 rhesus monkeys. […] Brain TSPO occupancy relative to the distribution volume of the vehicle control group was calculated by calculating the distribution volume of the interest area (cerebellum, hippocampus, striatum, thalamus, occipital lobe, temporal lobe, frontal lobe and parietal lobe) from the brain radioactivity concentration time change of [^11C] PBR28 and arterial blood plasma radioactivity which was corrected in a non-metabolic rate.

[2] = system: female diarrhea-type IBS patients; assay: PSS (Perceived Stress Scale) in the clinical trial of Biological example 10; format: in vivo, human; details: 60 mg treatment
Experimental: In the clinical trial of Biological example 10, the therapeutic effect of the compound of the present invention 60 mg treatment on depression and anxiety-related diseases were evaluated using PSS (Perceived Stress Scale) (refer to Journal of Health and Social Behavior, 24, 386-396, 1983), HAM-A (Hamilton Anxiety Scale) (refer to The British journal of medical psychology, 32, 50-55, 1959) and HAM-D (Hamilton Depression scale) (refer to Journal of Neurology, Neurosurgery and Psychiatry, 23, 56-62, 1960) as rating scales.

brain TSPO [3] = target: T1, brain TSPO (Homo sapiens, UniProt P30536); assay: Brain occupancy using PET in humans (1), [11C] PBR28, Emax model; format: in vivo
T1 construct: from tissue; host or cells: living human brain (PET, healthy adults)
Experimental: Male and female healthy adults were used. The compound of the present invention (6 to 200 mg) was once orally administered. Before and after 24 hours of the administration, a PET measurement using [^11C] PBR28 was performed in the following manner.
Measurement equipment: PET; ECAT HR+(Siemens) Measurement methods: 90 minutes blank measurement and 10 to 15 minutes transmission measurement were performed using 68Ge/68Ga calibration source. Next, [^11C] PBR28 was intravenously bolus administrated over a period of about 30 seconds. Emission measurement (total 90 minutes, 26 frames) was started together with the administration while an arterial blood sampling for measuring the plasma concentration.
Brain occupancy, relative to the binding potential (BP) before the administration, was calculated by calculating the BP of each interest area from the brain radioactivity concentration time change of [^11C] PBR28, nonspecific binding amount and arterial blood plasma radioactivity which was corrected in a non-metabolic rate (n=3 to 4 in each group). Further, the average TSPO occupancy of all interest areas was determined from the Lassen plot that obtained by the horizontal axis of the distribution volume before administration and the vertical axis of the value obtained by subtracting the distribution volume after administration from the distribution volume before the administration for each interest area. […] As parameters in this model, Emax (a maximal effect) and EC50 (ng/mL) (a blood concentration which can be achieved 50% Emax) were used. An analysis software NONMEM7.1.2 (ICON Development Solutions) was used in this analysis. Parameters and formula of Emax model were shown in the following.
TSPO Occupancy (%)=(θ1×X)/(θ2+X)
X=Plasma concentration (ng/mL)

T1 sequence (P30536 whole entry): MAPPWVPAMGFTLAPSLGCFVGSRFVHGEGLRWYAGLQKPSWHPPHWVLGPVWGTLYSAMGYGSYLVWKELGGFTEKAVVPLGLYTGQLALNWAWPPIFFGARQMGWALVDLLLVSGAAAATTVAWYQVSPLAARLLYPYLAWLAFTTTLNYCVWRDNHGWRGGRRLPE

plasma concentration that makes brain TSPO occupancy reach about 50% (brain TSPO [3]; Emax model): about 15 ng/mL
plasma concentration that makes brain TSPO occupancy reach about 85% (brain TSPO [3]; Emax model): about 150 ng/mL
θ1 (=Emax), maximal effect of Emax model of TSPO occupancy (brain TSPO [3]; [11C] PBR28, 6 to 200 mg single oral dose, NONMEM, in % (unit assumed)): 92.8±3.59
EC50 (brain TSPO [3]; [11C] PBR28, 6 to 200 mg single oral dose, NONMEM, read-out: θ2 (=EC50), blood concentration which can be achieved 50% Emax (converted)): 34.3 nM
Structure (SMILES): COc1cc(Cl)ccc1[C@H]1c2[nH]c3cccc(F)c3c2C2(CC2)CN1C(C)=O [the compound of the present invention, (1S)-2-acetyl-1-(4-chloro-2-methoxyphenyl)-5-fluoro-1,2,3,9-tetrahydrospiro[β-carboline-4,1′-cyclopropane]]
plasma concentration at which brain TSPO occupancy reaches about 50% (brain TSPO [1]): about 70 ng/mL
PSS score, 4th week ([2]; Patient A, baseline 35): 19
PSS score, Amount of change from baseline ([2]; Patient A, baseline 35, 4th week): −16
PSS score, 4th week ([2]; Patient B, baseline 23): 13
PSS score, Amount of change from baseline ([2]; Patient B, baseline 23, 4th week): −10
PSS score, 4th week ([2]; Patient C, baseline 18): 6
PSS score, Amount of change from baseline ([2]; Patient C, baseline 18, 4th week): −12
